Test results reported in patent publication US8404803B2, “Cancer-associated antigen analogue peptides and uses thereof” (Chugai Seiyaku Kabushiki Kaisha, priority 2005, dated 2013).

What was measured:
Type in all cases: cell-based, human
[1] = system: CD4-positive/IL-4-producing T cells; assay: Flow cytometry detection of CD4-positive/IL-4-positive T cells in peptide-stimulated mononuclear cell samples; details: for CD4+ IL-4+ number of positive samples/tested samples: mononuclear cell samples cultured 48 hours with peptide and IL-2; for CD4+ IL-4+ number of positive samples/tested samples / CD4+ IL-4+ number of positive samples/tested samples × 100 (%): positive sample > mean of control + 2 × SD (OVCA10-MNC group, 1.148%); for frequency of CD4-positive/IL-4-positive T cells / frequency of CD4-positive/IL-4-positive T cells at the time of epitope determination: typical example of flow cytometry; for frequency of CD4-positive/IL-4-positive T cells: FIGS. 6 and 7, IL-2 and analogue peptide added; for frequency of CD4-positive/IL-4-producing T cells at the time of epitope determination: FIG. 14; for CD4-positive/IL-4-positive frequencies, mean ± standard deviation: epitope determination, patient's mononuclear cell samples (FIG. 14); for frequency of CD4-positive/IL-4-positive T cells at the time of epitope determination: FIG. 13, IL-2 and peptide added
Experimental: (§1) All operations concerning cell culture were performed aseptically. First, human peripheral mononuclear cell fractions (comprising T cells, B cells, macrophages and such; hereinafter referred to as “mononuclear cell samples”) were prepared from the blood samples by density gradient centrifugation. Next, these mononuclear cells were suspended at 1×10^5 cell/ml in complete media having the following composition: • Complete Medium: RPMI1640 culture medium (Gibco Laboratories Inc., Grand Island, N.Y.) to which 10% fetal bovine serum (Cell Culture Laboratories, Cleveland, Ohio), 0.2 mM L-glutamine, 100 U/mL penicillin, 100 μg/mL streptomycin (Gibco Laboratories Inc.), and 0.2 ng/mL recombinant human IL-2 (Dainippon Pharmaceutical Co., Tokyo, Japan) have been mixed.
(§2) Theses mononuclear cell samples were placed still in V-bottomed 96-well tissue culture plastic plates (Flow Laboratories Inc., Horsham, Pa.) in the presence and absence of peptides, and cultured for 48 hours at 37° C. in a CO2 culture apparatus (Sanyo Medica, Osaka, Japan).
(§3) A number of mouse-derived anti-human specific monoclonal antibodies with different fluorescences (hereinafter referred to as ‘monoclonal antibodies’) were used to simultaneously analyze by double-staining the CD markers CD4 and CD8, which are on the T cell membranes, and the cytokines within the T cells. As the monoclonal antibodies, products labeled with either fluorescent substance phycoerythrin (hereinafter ‘PE’) or fluorescein isothiocyanate (hereinafter ‘FITC’) were used (Miltenyi Biotec, Glandbach, Germany). For detection, a flow cytometry apparatus FACScan (Becton Dickinson) was used to measure the frequency of cells to which the monoclonal antibodies had bound. Positive cells are automatically detected by the flow cytometry apparatus.
(§4) Since positive cells cannot be identified after the cytokines have been secreted to the outside of the cells, detection was performed at a stage where the cytokines are inside the cells. Therefore, the Cytofix/Cytoperm Kit (Pharmingen, San Diego, Calif.) was used for the analysis, using methods recommended by the manufacturer and a positive control for detection recommended by the kit (Prussin C, Metcalfe D, Detection of intracytoplasmic cytokine using flow cytometry and directly conjugated anti-cytokine antibodies, J Immunol Meth. 188: 117-128, 1995). Specifically, brefeldin A (Pharmingen, San Diego, Calif.) was added at 0.7 μl/1 ml/well to stop protein production in the Golgi apparatus, and the peptide-stimulated mononuclear cell samples were treated at 37° C. for two hours. Next, the culture plates were placed on ice and the reaction was stopped by adding physiological saline at 4° C. The mononuclear cell samples were transferred into 15 ml tubes as though by washing with the physiological saline at 4° C., and were then centrifuged at 1600 rpm for ten minutes to remove the supernatant.
(§5) First, to dye CD4s on the cell surface, 10 μl of FITC-labeled mouse anti-human CD4 was added, with CD8 monoclonal antibody as a control, and this was reacted at 4° C. for 30 minutes. The cells were then separated with 0.5% bovine serum albumin/physiological saline at 4° C., then 0.5% bovine serum albumin/physiological saline at 4° C. was added thereto, and this was centrifuged at 1600 rpm for ten minutes at 4° C. to remove the supernatant.
(§6) Next, the mononuclear cell samples were fixed and their cell membranes were permeabilized. The cells were suspended in 250 μl of Cytofix/Cytoperm (Pharmingen) solution and reacted at 4° C. for 20 minutes. 10 μl of the aforementioned fluorescently labeled anti-IFNγ monoclonal antibody or anti-IL-4 monoclonal antibody was added to these mononuclear cell samples and reacted at 4° C. for 30 minutes. Then, the cells were separated by adding 0.5% bovine serum albumin/physiological saline at 4° C., and 0.5% BSA/PBS at 4° C. was further added thereto. After centrifugation at 1600 rpm for ten minutes at 4° C., the supernatant was removed. […]

[2] = system: CD4-positive/IFNγ-producing T cells; assay: Flow cytometry detection of CD4-positive/IFNγ-positive T cells in peptide-stimulated mononuclear cell samples; details: for CD4+ IFNγ+ number of positive samples/tested samples: mononuclear cell samples cultured 48 hours with peptide and IL-2; for CD4+ IFNγ+ number of positive samples/tested samples / CD4+ IFNγ+ number of positive samples/tested samples × 100 (%): positive sample > mean of control + 2 × SD (OVCA10-MNC group, 1.378%); for frequency of CD4-positive/IFNγ-positive T cells / frequency of CD4-positive/IFNγ-positive T cells at the time of epitope determination: typical example of flow cytometry; for frequency of CD4-positive/IFNγ-positive T cells: FIGS. 9 and 10, IL-2 and analogue peptide added; for frequency of CD4-positive/IFNγ-producing T cells at the time of epitope determination: FIG. 16; for CD4-positive/IFNγ expression-positive frequencies, mean ± standard deviation: epitope determination, patient's mononuclear cell samples (FIG. 16); for frequency of CD4-positive/IFNγ-positive T cells at the time of epitope determination: FIG. 15, IL-2 and peptide added
Experimental: as §1, §2, §3, §4, §5, §6

[3] = system: CD4-positive/TNFα-positive T cells; assay: Flow cytometry detection of CD4 and TNFα in OVCA11-stimulated T cells; details: typical example, FIG. 12; after OVCA11 stimulation (0.44% before)
Text: as §3
(§7) Since positive cells cannot be identified after the cytokines have been secreted to the outside of the cells, detection was performed at a stage where the cytokines are inside the cells. […]
(§8) T cells activated in an antigen-specific manner are known to produce tumor necrosis factor α (TNFα) when they injure target cells, such as tumor cells. Therefore, the OVCA11-stimulated T cells obtained in [Example 3] were analyzed by flow cytometry to determine whether they indeed produced TNFα, using a similar method to [Example 3] and combinations of CD4 and TNFα, and CD8 and TNFα.

[4] = system: CD8-positive/TNFα-positive T cells; assay: Flow cytometry detection of CD8 and TNFα in OVCA11-stimulated T cells; details: typical example, FIG. 12; after OVCA11 stimulation (0.28% before)
Text: as §3, §7, §8

CD4-positive T cells = assay: Analysis of the CD4-positive T cell epitope (T cells positive for IL-4 or IFNγ); details: peptides with ten amino acid residues reproducing the MUC16 primary sequence
Experimental: The results were recorded as: number of double staining-positive cells/total number of counted mononuclear cells ×100=positive cell frequency (%). Furthermore, peptide antigen-specific T cell reactions were determined to be positive when the individual frequencies of positive cells in the mononuclear cell samples were the same as or greater than the mean plus two standard deviations (mean+2SD) of the negative control group, where the negative control was a mononuclear cell sample group that had been stimulated with analogue peptide (OVCA10 stimulation). In addition, each of the peptide-stimulated groups were compared by using t-tests to measure the significant difference.
Next, to determine the T cell epitope (based not on the analogues but on the original sequence), the present inventors went back to the original amino acid sequence of the 11-times repeat sequences of MUC16 from which the 30 amino acid residue sequence: […] (SEQ ID NO: 45) common to OVCA11 and OVCA12 was derived. Furthermore, the sequence was divided into lots of ten amino acid residues to prepare OVCA101 (SEQ ID NO: 4), 102 (SEQ ID NO: 5), 103 (SEQ ID NO: 6), 104 (SEQ ID NO: 7), 105 (SEQ ID NO: 8), 106 (SEQ ID NO: 9), 107 (SEQ ID NO: 2), 108 (SEQ ID NO: 3), 109, 110, 111, 112, 113, 114, 115 (SEQ ID NO: 10) (FIG. 5), and T cells positive for IL-4 or IFNγ were detected using a method similar to the above.

| Sequence | CD4+ IL-4+ number of positive samples/tested samples [1] | CD4+ IL-4+ number of positive samples/tested samples × 100 (%) [1] [%] | frequency of CD4-positive/IL-4-positive T cells [1] [%] | CD4+ IFNγ+ number of positive samples/tested samples [2] | CD4+ IFNγ+ number of positive samples/tested samples × 100 (%) [2] [%] | frequency of CD4-positive/IFNγ-positive T cells [2] [%] | frequency of CD4-positive/IL-4-producing T cells at the time of epitope determination ([1]; peptide 15 μM) | CD4-positive/IL-4-positive frequencies, mean ± standard deviation ([1]; peptide 15 μM) [%] | frequency of CD4-positive/IL-4-positive T cells at the time of epitope determination [1] [%] | frequency of CD4-positive/IFNγ-producing T cells at the time of epitope determination ([2]; peptide 15 μM) | CD4-positive/IFNγ expression-positive frequencies, mean ± standard deviation ([2]; peptide 15 μM) [%] | frequency of CD4-positive/IFNγ-positive T cells at the time of epitope determination [2] [%] | recognized by CD4-positive T cells (CD4-positive T cells) | other results |
| --- | --- | --- | --- | --- | --- | --- | --- | --- | --- | --- | --- | --- | --- | --- |
| GHTAPGPLLVPFTLNFTITN (listed as Homo sapiens) [OVCA11] | 27/32 | 84.4 | 7.06 | 26/33 | 78.8 | 3.12 |  |  |  |  |  |  |  | frequency of CD4-positive/IL-4-producing T cells compared to groups to which OVCA10 was added ([1]; FIG. 8, peptide 15 μM, statistically significant difference): higher; frequency of CD4-positive/IL-4-positive cells, mean±standard deviation ([1]; all the analyzed mononuclear cell samples (FIG. 8), peptide 15 μM): 4.314±2.805%; average number of IL-4-positive cells ([1]; healthy group): 4.89%; CD4+ IL-4+ number of positive samples/tested samples ([1]; listed as OVCA 11): 27 of the 32; average number of IL-4-positive cells ([1]; patient group): 4.12%; CD4+ IL-4+ number of positive samples/tested samples × 100 (%) ([1]; listed as OVCA 11): 84.4%; frequency of CD4-positive/IFNγ-producing T cells compared to groups to which OVCA10 was added ([2]; FIG. 11, peptide 15 μM, statistically significant difference): higher; frequency of CD4-positive/INFγ-positive cells, mean±standard deviation ([2]; all of the analyzed mononuclear cell samples (FIG. 11), peptide 15 μM): 3.037±2.234%; average number of IFNγ-positive cells ([2]; healthy group): 3.48%; CD4+ IFNγ+ number of positive samples/tested samples ([2]; listed as OVCA 11): 26 of the 33; average number of IFNγ-positive cells ([2]; patient group): 2.85%; CD4+ IFNγ+ number of positive samples/tested samples × 100 (%) ([2]; listed as OVCA 11): 78.8%; frequency of CD4-positive/TNFα-positive T cells [3]: 5.76%; frequency of CD8-positive/TNFα-positive T cells [4]: 3.98% |
| LFTLNPTITN [OVCA108] | 5/9 | 55.6 |  | 2/8 | 25.0 |  | High frequency cases could be detected | 6.471±13.319 | 1.17 | High frequency cases could be detected | 8.963±19.939 | 1.27 | recognized by CD4-positive T cells |  |
| PFTLNFTITN (listed as Homo sapiens) [OVCA107] | 5/9 | 55.6 |  | 3/8 | 37.5 |  | High frequency cases could be detected | 8.036±12.870 | 6.32 | High frequency cases could be detected | 7.626±12.448 | 2.10 | recognized by CD4-positive T cells |  |
| RPIVPGPLLV (listed as Homo sapiens) [OVCA103] | 0/14 | 0 |  | 1/14 | 7.1 |  |  | 0.211±0.269 |  |  | 0.331±0.467 |  |  |  |
| STPGTSTVHLGTSGTPASLP (listed as Homo sapiens) [OVCA9] | 0/29 | 0 | 0.05 | 2/29 | 6.9 | 0.02 |  |  |  |  |  |  |  |  |
